Structures can show the parent of a compound that is named as a salt.
Test system: MDA-231 cancer cells
Test: Inhibition of proliferation assay: cell confluence (IncuCyte live cell imaging)
Assay type: cell-based
Details: MDA-231 cells, IncuCyte imaging every 3 h over 4-5 d, relative confluence normalised to time zero
Text: Inhibition of Proliferation Assay
The confluence value is a surrogate for cell proliferation and growth. The value is expressed as a percent confluence, which represents the fraction of culture dish-surface that is occupied by cells. As the number of cells in the dish increases over time due to proliferation, so will their coverage of that surface increase. Expansion of the cell population on the cell culture-dish surface and confluence have mostly a linear relationship until the cells on the plate surface begin to reach saturation or maximum density.
Confluence is determined based on image analysis. Image based software can identify objects in the image field base on changes to pixel density in a grey scale image. The software can then assign a mask to those pixels within the object. Objects can be ‘gated’ out based on size and shape. To determine cell confluence, images of cells are first masked as objects. The surface area of the image that is masked is measured and compared to the total surface area of the culture dish surface to obtain a percent confluence.
MDA-231 cancer cells were obtained from ATCC. Cells were cultured in Dulbecco's Modified Eagle Medium (DMEM) supplemented with 10% Fetal Bovine Serum (FBS), 2 mM Glutamax, 1 mM Non Essential Amino Acid (NEAA) solution and 1 mM sodium pyruvate. […] Final DMSO concentrations were […]. Images were acquired with an IncuCyte Live Cell Imaging microscopy (Essen Bioscience) at every 3 h under cell culture conditions with 10× objective over 4-5 d. Cell confluence was calculated from one field of view per well using the IncuCyte in-built algorithm. Relative confluence values were obtained by normalising each value to the time zero value in each sample.

## C[C@H]1c2cccc(O)c2C(=O)C2=C(O)[C@]3(O)C(=O)C(C(N)=O)=C(O)[C@@H](N(C)C)[C@@H]3[C@@H](O)[C@@H]21 [Doxycycline, reference compound]
Concentration 10 μM
  % Confluence: 98.7%
Concentration 50 μM
  % Confluence: 91%

## COc1ccc([P+](CCCCCCCCCCCC(=O)Nc2ccc3c(c2O)C(=O)C2=C(O)[C@]4(O)C(=O)C(C(N)=O)=C(O)[C@@H](N(C)C)[C@@H]4[C@@H](O)[C@@H]2[C@H]3C)(c2ccc(OC)cc2)c2ccc(OC)cc2)cc1 [Example 1, (11-{[(5R,5aR,6S,6aR,7S,10aS)-9-carbamoyl-7-(dimethylamino)-1,6,8,10a,11-pentahydroxy-5-methyl-10,12-dioxo-5,5a,6,6a,7,10,10a,12-octahydrotetracen-2-yl]carbamoyl}undecyl)tris(4-methoxyphenyl)phosphonium formate]
Concentration 10 μM
  % Confluence: 17%

## C[C@H]1c2ccc(NC(=O)CCCCCCC[P+](C)(c3ccccc3)c3ccccc3)c(O)c2C(=O)C2=C(O)[C@]3(O)C(=O)C(C(N)=O)=C(O)[C@@H](N(C)C)[C@@H]3[C@@H](O)[C@@H]21.[Cl-] [Example 2, (7-{[(5R,5aR,6S,6aR,7S,10aS)-9-carbamoyl-7-(dimethylamino)-1,6,8,10a,11-pentahydroxy-5-methyl-10,12-dioxo-5,5a,6,6a,7,10,10a,12-octahydrotetracen-2-yl]carbamoyl}heptyl)(methyl)diphenylphosphonium chloride]
Concentration 10 μM
  % Confluence: 91.7%

## C[C@H]1c2ccc(NC(=O)CCCCCCC[P+](C)(C)c3ccccc3)c(O)c2C(=O)C2=C(O)[C@]3(O)C(=O)C(C(N)=O)=C(O)[C@@H](N(C)C)[C@@H]3[C@@H](O)[C@@H]21.[Cl-] [Example 3, (7-{[(5R,5aR,6S,6aR,7S,10aS)-9-carbamoyl-7-(dimethylamino)-1,6,8,10a,11-pentahydroxy-5-methyl-10,12-dioxo-5,5a,6,6a,7,10,10a,12-octahydrotetracen-2-yl]carbamoyl}heptyl)dimethylphenylphosphonium chloride]
Concentration 10 μM
  % Confluence: 62.5%

## C[C@H]1c2ccc(NC(=O)CCCCCCC[P+](C)(C)C)c(O)c2C(=O)C2=C(O)[C@]3(O)C(=O)C(C(N)=O)=C(O)[C@@H](N(C)C)[C@@H]3[C@@H](O)[C@@H]21.[Cl-] [Example 4, (7-{[(5R,5aR,6S,6aR,7S,10aS)-9-carbamoyl-7-(dimethylamino)-1,6,8,10a,11-pentahydroxy-5-methyl-10,12-dioxo-5,5a,6,6a,7,10,10a,12-octahydrotetracen-2-yl]carbamoyl}heptyl)trimethylphosphonium chloride]
Concentration 10 μM
  % Confluence: 111.8%

## C[C@H]1c2ccc(NC(=O)CCCCCCCCCCC[P+](C)(c3ccccc3)c3ccccc3)c(O)c2C(=O)C2=C(O)[C@]3(O)C(=O)C(C(N)=O)=C(O)[C@@H](N(C)C)[C@@H]3[C@@H](O)[C@@H]21.[Cl-] [Example 5, (11-{[(5R,5aR,6S,6aR,7S,10aS)-9-carbamoyl-7-(dimethylamino)-1,6,8,10a,11-pentahydroxy-5-methyl-10,12-dioxo-5,5a,6,6a,7,10,10a,12-octahydrotetracen-2-yl]carbamoyl}undecyl)(methyl)diphenylphosphonium chloride]
Concentration 10 μM
  % Confluence: 24.9%

## C[C@H]1c2ccc(NC(=O)CCCCCCCCCCC[P+](C)(C)C)c(O)c2C(=O)C2=C(O)[C@]3(O)C(=O)C(C(N)=O)=C(O)[C@@H](N(C)C)[C@@H]3[C@@H](O)[C@@H]21.[Cl-] [Example 6, (11-{[(5R,5aR,6S,6aR,7S,10aS)-9-carbamoyl-7-(dimethylamino)-1,6,8,10a,11-pentahydroxy-5-methyl-10,12-dioxo-5,5a,6,6a,7,10,10a,12-octahydrotetracen-2-yl]carbamoyl}undecyl)trimethylphosphonium chloride]
Concentration 10 μM
  % Confluence: 57.7%

## Cc1cccc([P+](CCCCCCCCCCCC(=O)Nc2ccc3c(c2O)C(=O)C2=C(O)[C@]4(O)C(=O)C(C(N)=O)=C(O)[C@@H](N(C)C)[C@@H]4[C@@H](O)[C@@H]2[C@H]3C)(c2cccc(C)c2)c2cccc(C)c2)c1.[Cl-] [Example 7, (11-{[(5R,5aR,6S,6aR,7S,10aS)-9-carbamoyl-7-(dimethylamino)-1,6,8,10a,11-pentahydroxy-5-methyl-10,12-dioxo-5,5a,6,6a,7,10,10a,12-octahydrotetracen-2-yl]carbamoyl}undecyl)tris(3-methylphenyl)phosphonium chloride]
Concentration 10 μM
  % Confluence: 29.4%

## C[C@H]1c2ccc(NC(=O)CCCCCCC[P+](c3ccccc3)(c3ccccc3)c3cnn(C)c3)c(O)c2C(=O)C2=C(O)[C@]3(O)C(=O)C(C(N)=O)=C(O)[C@@H](N(C)C)[C@@H]3[C@@H](O)[C@@H]21.[Cl-] [Example 8, (7-{[(5R,5aR,6S,6aR,7S,10aS)-9-carbamoyl-7-(dimethylamino)-1,6,8,10a,11-pentahydroxy-5-methyl-10,12-dioxo-5,5a,6,6a,7,10,10a,12-octahydrotetracen-2-yl]carbamoyl}heptyl)(1-methyl-1H-pyrazol-4-yl)diphenylphosphonium chloride]
Concentration 10 μM
  % Confluence: 45.6%

## C[C@H]1c2ccc(NC(=O)CCCCCCCC[P+](c3ccccc3)(c3ccccc3)c3cnn(C)c3)c(O)c2C(=O)C2=C(O)[C@]3(O)C(=O)C(C(N)=O)=C(O)[C@@H](N(C)C)[C@@H]3[C@@H](O)[C@@H]21.[Cl-] [Example 9, (8-{[(5R,5aR,6S,6aR,7S,10aS)-9-carbamoyl-7-(dimethylamino)-1,6,8,10a,11-pentahydroxy-5-methyl-10,12-dioxo-5,5a,6,6a,7,10,10a,12-octahydrotetracen-2-yl]carbamoyl}octyl)(1-methyl-1H-pyrazol-4-yl)diphenylphosphonium chloride]
Concentration 10 μM
  % Confluence: 55.5%

## C[C@H]1c2ccc(NC(=O)CCCCCCCCCCC[P+](c3ccccc3)(c3ccccc3)c3cnn(C)c3)c(O)c2C(=O)C2=C(O)[C@]3(O)C(=O)C(C(N)=O)=C(O)[C@@H](N(C)C)[C@@H]3[C@@H](O)[C@@H]21.[Cl-] [Example 10, (11-{[(5R,5aR,6S,6aR,7S,10aS)-9-carbamoyl-7-(dimethylamino)-1,6,8,10a,11-pentahydroxy-5-methyl-10,12-dioxo-5,5a,6,6a,7,10,10a,12-octahydrotetracen-2-yl]carbamoyl}undecyl)(1-methyl-1H-pyrazol-4-yl)diphenylphosphonium chloride]
Concentration 10 μM
  % Confluence: 12.4%

## C[C@H]1c2ccc(NC(=O)CCCCCCCCC[P+](c3ccccc3)(c3ccccc3)c3cnn(C)c3)c(O)c2C(=O)C2=C(O)[C@]3(O)C(=O)C(C(N)=O)=C(O)[C@@H](N(C)C)[C@@H]3[C@@H](O)[C@@H]21.[Cl-] [Example 11, (9-{[(5R,5aR,6S,6aR,7S,10aS)-9-carbamoyl-7-(dimethylamino)-1,6,8,10a,11-pentahydroxy-5-methyl-10,12-dioxo-5,5a,6,6a,7,10,10a,12-octahydrotetracen-2-yl]carbamoyl}nonyl)(1-methyl-1H-pyrazol-4-yl)diphenylphosphonium chloride]
Concentration 10 μM
  % Confluence: 70.1%

## C[C@H]1c2ccc(NC(=O)CCCCCCCCCC[P+](c3ccccc3)(c3ccccc3)c3cnn(C)c3)c(O)c2C(=O)C2=C(O)[C@]3(O)C(=O)C(C(N)=O)=C(O)[C@@H](N(C)C)[C@@H]3[C@@H](O)[C@@H]21.[Cl-] [Example 12, (10-{[(5R,5aR,6S,6aR,7S,10aS)-9-carbamoyl-7-(dimethylamino)-1,6,8,10a,11-pentahydroxy-5-methyl-10,12-dioxo-5,5a,6,6a,7,10,10a,12-octahydrotetracen-2-yl]carbamoyl}decyl)(1-methyl-1H-pyrazol-4-yl)diphenylphosphonium chloride]
Concentration 10 μM
  % Confluence: 45.4%

## CC(C)[P+](CCCCCCCCCCCC(=O)Nc1ccc2c(c1O)C(=O)C1=C(O)[C@]3(O)C(=O)C(C(N)=O)=C(O)[C@@H](N(C)C)[C@@H]3[C@@H](O)[C@@H]1[C@H]2C)(c1ccccc1)c1ccccc1 [Example 13, (11-{[(5R,5aR,6S,6aR,7S,10aS)-9-carbamoyl-7-(dimethylamino)-1,6,8,10a,11-pentahydroxy-5-methyl-10,12-dioxo-5,5a,6,6a,7,10,10a,12-octahydrotetracen-2-yl]carbamoyl}undecyl)diphenyl(propan-2-yl)phosphonium chloride]
Concentration 10 μM
  % Confluence: 35.1%

Reference: patent US11161862B2, “Phosphonium-ion tethered tetracycline drugs for treatment of cancer” (Oxford University Innovation Limited, priority 2017, dated 2021)
